# In patent US6110961A, “Phenoxathin derivatives as inhibitors of monoamine oxidase” (Krenitsky Pharmaceuticals, Inc., priority 1999, dated 2000):
# Biological target: T1, MAO-A (Rattus norvegicus, UniProt P21396)
# T1 construct: mitochondrial extracts of rat brain; from tissue; host or cells: rat brain, mitochondrial extracts
# T1 sequence (P21396 1-526): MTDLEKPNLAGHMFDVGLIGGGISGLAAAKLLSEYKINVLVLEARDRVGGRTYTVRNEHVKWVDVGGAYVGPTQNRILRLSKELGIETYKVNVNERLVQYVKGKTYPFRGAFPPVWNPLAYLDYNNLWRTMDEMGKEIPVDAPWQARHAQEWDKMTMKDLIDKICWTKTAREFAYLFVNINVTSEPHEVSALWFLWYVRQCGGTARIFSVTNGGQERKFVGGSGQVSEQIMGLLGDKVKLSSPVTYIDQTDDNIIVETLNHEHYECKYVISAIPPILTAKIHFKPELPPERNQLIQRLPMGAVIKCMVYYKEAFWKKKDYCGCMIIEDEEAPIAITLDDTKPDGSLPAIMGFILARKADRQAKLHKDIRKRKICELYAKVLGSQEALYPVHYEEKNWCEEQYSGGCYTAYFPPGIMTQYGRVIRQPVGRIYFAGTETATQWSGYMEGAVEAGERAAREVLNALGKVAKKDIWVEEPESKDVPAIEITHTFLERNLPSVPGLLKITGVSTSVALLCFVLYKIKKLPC
# Assay: MAO-A inhibition in mitochondrial extracts of rat brain (in vitro, double-label assay)
# Assay type: biochemical
# Conditions: [3H]serotonin 0.2 mM substrate
# Procedure: MAO was assayed with [^3 H]serotonin (0.2 mM, 5 Ci/mole) and [^14 C]β-phenethylamine (10 μM, 3 Ci/mole) as substrates in a double-label assay (white and Glassman, J. Neurochem. 29:987-97 (1977)). Under these conditions, serotonin is selectively metabolized by MAO-A and β-phenethylamine by MAO-B. […]
# Compounds of formula (I) produced a potent selective inhibition of MAO-A in mitochondrial extracts of rat brain, the IC50 s (concentration producing 50% inhibition) being shown in Table I. This inhibition was competitive vs. the substrates serotonin or tyramine.
# The results are shown in Table 1 with the IC50 being the concentration providing 50% inhibition. No significant inhibition of MAO-B was found with these compounds.
SMILES,IC50 [nM],MAO-A Inhibition (rat brain) in vitro IC50
"CC(C)Oc1cc2c(cc1F)S(=O)(=O)c1ccccc1O2 [Compound 12, 2-fluoro-3-isopropoxyphenoxathiin 10,10-dioxide]",12,
"C[C@@H](CO)Oc1ccc2c(c1)Oc1ccccc1S2(=O)=O [Compound 21, (S)-(+)-2-(3-phenoxathiinyloxy)propanol S,S-dioxide]",70,
"CC(CO)Oc1ccc2c(c1)Oc1ccccc1S2(=O)=O (racemic) [Compound 18, (rac)-2-(3-phenoxathiinyloxy)propanol S,S-dioxide]",20,
"CC(C)(C)Oc1ccc2c(c1)Oc1ccccc1S2(=O)=O [Compound 15, 3-tert-butoxyphenoxathiin 10,10-dioxide]",26,
"CCCCCOc1ccc2c(c1)Oc1ccccc1S2(=O)=O [Compound 17, 3-(pentyloxy)phenoxathiin 10,10-dioxide]",55,
"O=S1(=O)c2ccccc2Oc2cc(OCC(F)(F)F)ccc21 [Compound 22, 3-(2,2,2-trifluoroethoxy)phenoxathiin 10,10-dioxide]",8,
"COc1ccc2c(c1)Oc1ccccc1S2(=O)=O [Compound 14, 3-methoxyphenoxathiin 10,10-dioxide]",20,
"CC(C)Oc1cc2c(cc1F)S(=O)(=O)c1ccc(F)cc1O2 [Compound 16, 2,7-difluoro-3-isopropoxyphenoxathiin 10,10-dioxide]",35,
"CC(CF)Oc1ccc2c(c1)Oc1ccccc1S2(=O)=O (racemic) [Compound 27, (rac)-3-(1-(fluoromethyl)ethoxy)phenoxathiin-10,10-dioxide]",,active
"CCC(C)Oc1ccc2c(c1)Oc1ccccc1S2(=O)=O (racemic) [Compound 13, (rac)-3-(1-methylpropoxy)phenoxathiin-10,10-dioxide]",14,
"CCCCOc1ccc2c(c1)Oc1ccccc1S2(=O)=O [Compound 8, 3-butoxyphenoxathiin 10,10-dioxide]",5,
"CC(C)Oc1ccc2c(c1)Oc1cc(F)ccc1S2(=O)=O [Compound 11, 7-fluoro-3-isopropoxyphenoxathiin 10,10-dioxide]",9,
"O=S1(=O)c2ccccc2Oc2cc(OC(CF)C(F)(F)F)ccc21 (racemic) [Compound 26, (rac)-3-(2-fluoro-1-(trifluoromethyl)ethoxy)phenoxathiin-10,10-dioxide]",,active
"O=S1(=O)c2ccc(F)cc2Oc2cc(OCC(F)(F)F)ccc21 [Compound 31, 3-fluoro-7-(2,2,2-trifluoroethoxy)phenoxathiin-10,10-dioxide]",,active
"CC(C)Oc1ccc2c(c1)Oc1cccc(F)c1S2(=O)=O [Compound 10, 9-fluoro-3-isopropoxyphenoxathiin 10,10-dioxide]",8,
"CC(Oc1ccc2c(c1)Oc1ccccc1S2(=O)=O)C(F)(F)F (single isomer, unassigned) [Compound 30, (S*)-3-(2,2,2-trifluoro-1-methylethoxy)phenoxathiin-10,10-dioxide]",14,

# Continued, values first:
IC50 [nM],MAO-A Inhibition (rat brain) in vitro IC50,SMILES
6,,"CC(C)Oc1ccc2c(c1)Oc1cc(F)c(F)cc1S2(=O)=O [Compound 9, 7,8-difluoro-3-isopropoxyphenoxathiin-10,10-dioxide]"
5,,"CC(C)Oc1cc(F)c2c(c1)Oc1cc(F)ccc1S2(=O)=O [Compound 19, 1,7-difluoro-3-isopropoxyphenoxathiin 10,10-dioxide]"
5,,"O=S1(=O)c2ccccc2Oc2cc(OC(CO)C(F)(F)F)ccc21 (racemic) [Compound 28, (rac)-2-(3-phenoxathiinyloxy)-2-(trifluoromethyl)ethanol-S,S-dioxide]"
5,,"CC(Oc1ccc2c(c1)Oc1ccccc1S2(=O)=O)C(F)(F)F (racemic) [Compound 20, (rac)-3-(2,2,2-trifluoro-1-methylethoxy)phenoxathiin-10,10-dioxide]"
4,,"CC[C@H](C)Oc1ccc2c(c1)Oc1ccccc1S2(=O)=O [Compound 7, (S)-3-(1-methylpropoxy)phenoxathiin 10,10-dioxide]"
4,,"CC[C@@H](C)Oc1ccc2c(c1)Oc1ccccc1S2(=O)=O [Compound 6, (R)-3-(1-methylpropoxy)phenoxathiin 10,10-dioxide]"
3.5,,"O=S1(=O)c2ccccc2Oc2cc(OC(C(F)F)C(F)F)ccc21 [Compound 24, 3-(2,2-(difluoro)-1-(difluoromethyl)ethoxy)phenoxathiin-10,10-dioxide]"
3.4,,"CC(C)Oc1ccc2c(c1)Oc1ccccc1S2(=O)=O [Compound 5, 3-isopropoxyphenoxathiin 10,10-dioxide]"
3,,"CC(C)Oc1cc2c(c(F)c1F)S(=O)(=O)c1ccccc1O2 [Compound 4, 1,2-difluoro-3-isopropoxyphenoxathiin 10,10-dioxide]"
2.5,,"CCCOc1ccc2c(c1)Oc1ccccc1S2(=O)=O [Compound 3, 3-propoxyphenoxathiin 10,10-dioxide]"
2,,"O=S1(=O)c2ccccc2Oc2cc(OC(CF)CF)ccc21 [Compound 23, 3-[2-fluoro-1-(fluoromethyl)ethoxy]phenoxathiin-10,10-dioxide]"
2,,"CCOc1ccc2c(c1)Oc1ccccc1S2(=O)=O [Compound 2, 3-ethoxyphenoxathiin 10,10-dioxide]"
2,,"CC(Oc1ccc2c(c1)Oc1ccccc1S2(=O)=O)C(F)(F)F (single isomer, unassigned) [Compound 29, (R*)-3-(2,2,2-trifluoro-1-methylethoxy)phenoxathiin-10,10-dioxide]"
1.8,,"CC(Oc1ccc2c(c1)Oc1ccccc1S2(=O)=O)C(F)F (racemic) [Compound 25, (rac)-3-(1-(difluoromethyl)ethoxy)phenoxathiin-10,10-dioxide]"
1.1,,"CC(C)Oc1cc(F)c2c(c1)Oc1ccccc1S2(=O)=O [Compound 1, 1-fluoro-3-isopropoxyphenoxathiin 10,10-dioxide]"

# Tested on: liver MAO-A
# Assay: not given
# Conditions: single oral dose giving approximately 80% inhibition of brain MAO-A; 3 hours
row,SMILES,inhibition of liver MAO-A [%]
1,NNCCc1ccccc1 [phenelzine],≥ 90

# Tested on: MAO
# Assay: not given
# Conditions: background art; cited from earlier work
row,SMILES,selectivity and reversibility of MAO inhibition
1,NNCCc1ccccc1 [phenelzine],"non-selective, irreversible inhibitors"
2,N[C@@H]1C[C@H]1c1ccccc1 (relative stereo) [tranylcypromine],"non-selective, irreversible inhibitors"
3,Cc1cc(C(=O)NNCc2ccccc2)no1 [isocarboxazid],"non-selective, irreversible inhibitors"
